Source: article PMC5865150, “Structure and evolution of the Fam20 kinases” (Nature Communications, 2018)
Changes are numbered by the printed parent chain. Names and notes keep the numbering of the source.

T1: Fam20A−drFam20C complex (Homo sapiens, UniProt Q96MK3)
T1 construct: human Fam20A residues 69-529 with zebrafish Fam20C residues 124-560, High Five cells, His6-MBP tags removed with TEV; heterotetramer; with Extracellular serine/threonine protein kinase FAM20C (Danio rerio)
T1 sequence (Q96MK3 69-529): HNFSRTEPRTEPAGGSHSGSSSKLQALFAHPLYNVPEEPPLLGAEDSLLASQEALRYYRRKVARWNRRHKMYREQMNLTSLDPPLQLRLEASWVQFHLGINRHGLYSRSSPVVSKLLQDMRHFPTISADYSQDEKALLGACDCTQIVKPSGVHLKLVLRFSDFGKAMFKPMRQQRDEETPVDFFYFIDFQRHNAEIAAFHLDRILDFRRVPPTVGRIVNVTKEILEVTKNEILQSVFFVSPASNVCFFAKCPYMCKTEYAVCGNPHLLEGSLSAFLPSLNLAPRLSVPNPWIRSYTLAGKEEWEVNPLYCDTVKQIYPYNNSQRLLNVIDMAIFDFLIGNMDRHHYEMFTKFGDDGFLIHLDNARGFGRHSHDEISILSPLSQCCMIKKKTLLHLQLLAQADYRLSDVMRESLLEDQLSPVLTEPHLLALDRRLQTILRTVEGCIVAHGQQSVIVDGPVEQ
T1 sequence (E7FBB8 26-545 partner): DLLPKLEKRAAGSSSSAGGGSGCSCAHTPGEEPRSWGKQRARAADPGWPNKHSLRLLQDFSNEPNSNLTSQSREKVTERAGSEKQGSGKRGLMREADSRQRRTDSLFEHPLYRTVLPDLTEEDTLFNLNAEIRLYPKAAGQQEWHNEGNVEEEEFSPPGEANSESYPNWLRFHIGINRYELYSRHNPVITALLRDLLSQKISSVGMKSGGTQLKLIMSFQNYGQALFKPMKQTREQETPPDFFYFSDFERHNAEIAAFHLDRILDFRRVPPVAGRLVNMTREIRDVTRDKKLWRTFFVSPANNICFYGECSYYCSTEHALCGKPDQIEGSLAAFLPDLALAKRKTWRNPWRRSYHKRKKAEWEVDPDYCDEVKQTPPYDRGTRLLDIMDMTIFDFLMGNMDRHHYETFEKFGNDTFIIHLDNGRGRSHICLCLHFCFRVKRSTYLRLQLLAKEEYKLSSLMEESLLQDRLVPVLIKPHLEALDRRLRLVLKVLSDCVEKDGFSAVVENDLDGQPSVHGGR

T2: human Fam20A−Fam20C complex (Homo sapiens, UniProt Q96MK3)
T2 construct: Fam20A residues 69-529 and Fam20C residues 63-584, High Five cells, His6-MBP tags removed with TEV; heterodimer in crystal; with Extracellular serine/threonine protein kinase FAM20C
T2 sequence (Q96MK3 69-529): T1 sequence (Q96MK3 69-529)
T2 sequence (Q8IXL6 63-584 partner): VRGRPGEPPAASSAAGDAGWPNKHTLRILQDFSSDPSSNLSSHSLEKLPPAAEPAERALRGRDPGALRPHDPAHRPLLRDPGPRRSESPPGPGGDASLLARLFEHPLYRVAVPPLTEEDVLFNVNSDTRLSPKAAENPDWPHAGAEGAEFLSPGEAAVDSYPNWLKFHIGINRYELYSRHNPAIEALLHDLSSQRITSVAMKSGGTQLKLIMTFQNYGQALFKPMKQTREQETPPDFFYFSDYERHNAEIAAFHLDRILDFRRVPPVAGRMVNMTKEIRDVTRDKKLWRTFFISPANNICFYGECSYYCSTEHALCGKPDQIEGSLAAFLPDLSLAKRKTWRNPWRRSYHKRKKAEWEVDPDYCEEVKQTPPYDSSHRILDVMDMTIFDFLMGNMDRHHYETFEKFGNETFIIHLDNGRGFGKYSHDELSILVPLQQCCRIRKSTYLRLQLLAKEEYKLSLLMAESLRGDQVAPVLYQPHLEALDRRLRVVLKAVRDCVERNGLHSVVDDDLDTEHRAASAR

T3: human Fam20B (hsFam20B) (Homo sapiens, UniProt O75063, K312R)
T3 construct: residues 55-402, His6-MBP fusion secreted from High Five insect cells, Ni-NTA; monomer
T3 sequence (O75063 55-402 K312R): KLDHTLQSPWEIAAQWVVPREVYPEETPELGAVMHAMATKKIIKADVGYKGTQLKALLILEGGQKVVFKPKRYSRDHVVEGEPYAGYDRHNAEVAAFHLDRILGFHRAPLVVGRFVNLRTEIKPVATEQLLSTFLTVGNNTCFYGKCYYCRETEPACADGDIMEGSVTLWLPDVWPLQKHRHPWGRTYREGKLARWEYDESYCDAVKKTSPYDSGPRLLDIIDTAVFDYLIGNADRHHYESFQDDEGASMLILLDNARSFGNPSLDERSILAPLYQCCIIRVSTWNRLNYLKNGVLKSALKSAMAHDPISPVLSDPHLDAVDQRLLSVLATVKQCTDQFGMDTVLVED

T4: human Fam20B (hsFam20B) (Homo sapiens, UniProt O75063)
T4 construct: residues 55-402, His6-MBP fusion secreted from High Five insect cells, Ni-NTA; monomer
T4 sequence (O75063 55-402): T3 sequence (O75063 55-402 K312R) with R258K

T5: human Fam20C (residues 63-584), untagged (human, UniProt Q8IXL6 63-584)
T5 construct: human Fam20C, residues 63-584; also called hsFam20C; source: High Five insect cells (baculovirus), conditioned medium, purified (Ni-NTA, TEV digestion, Resource Q, size exclusion); not shown: His6, N-terminal, cleaved; MBP, N-terminal, cleaved
T5 sequence (looked up): T2 sequence (Q8IXL6 63-584 partner)

B1: ceFam20 (Fam20C ortholog of Caenorhabditis elegans) (enzyme)
chain: SLPHQPIPPSLGEKDLSDPFNFLFSSNKITLRKLYDLTKNVDFDQLRQNECKKNITLSKFWEKSEQRNVPEDDNWERFYSNIGSCSVYSDDQMIDNLLHDLNTSPIKHVHIMDGGTQVKFVFTFKNDKQAVFKPMRFGRDYESDPNHFYFSDFERHHAEIATFHLDRVLGFRRAIPTVGRVLNMTTELFEKAEKKLKKTFFFSPAKNFCFVSRCDYYCDTTHAICGLPDMKEGSVQVFLPDESAVPRKHNRSPYRRTYSKKNQVAEWQSSMNYCTDKVKTKRQYAHGRRLLDLVDIHILDYLIGNQDRHHFESFNVFNDLPSYAIHLDHGRAFGRSDFDDDDIILPLRQCCILRPSTFQTLMNFYSTPKSLTKALHESLSKDPAHPILAYKHYPAMERRLAKIMSHILECFESRGVAEVLVAEYNNPDVSDAEQNDEEQSEEHQDKKDDKKTV
notes: C. elegans Fam20 (ceFam20)
B2: human Fam20A (residues 69-529), untagged (domain or fragment, UniProt Q96MK3 69-529, looked up)
chain: T1 sequence (Q96MK3 69-529)
notes: human Fam20A, pseudokinase, residues 69-529; Crystallised and kept with 0.25 mM ATP; also called hsFam20A; source: High Five insect cells (baculovirus), conditioned medium, purified (Ni-NTA, TEV digestion, Resource Q, size exclusion); not shown: His6, N-terminal, cleaved; MBP, N-terminal, cleaved
B3: Fam20A E299G/I300S (domain or fragment, human, UniProt Q96MK3 69-529, looked up)
chain: T1 sequence (Q96MK3 69-529) with E231G, I232S
notes: human Fam20A, residues 69-529; The mutations create a site for N-linked glycosylation (Asn298-Gly299-Ser300); The limits are those of the only insect-cell Fam20A construct told in the methods; source: High Five insect cells (baculovirus), conditioned medium, purified as the WT protein
B4: purified human Fam20C (residues 63-584) of the solution studies (domain or fragment, UniProt Q8IXL6 63-584, looked up)
chain: T2 sequence (Q8IXL6 63-584 partner)
notes: human Fam20C, residues 63-584; otherwise the same construct as m2 and m8; also called WT Fam20C; hsFam20C; source: High Five insect cells (baculovirus), conditioned medium, purified

Experiments:
Fam20A−drFam20C complex = molecular target: T1, Fam20A−drFam20C complex; assay: X-ray crystal structure, […] Å; format: binding; conditions: 0.25 mM ATP; ATP-1 bound to Fam20A in inverted orientation
[1] = molecular target: T2, human Fam20A−Fam20C complex; assay: X-ray crystal structure, […] Å; format: binding; conditions: 0.25 mM ATP; ATP-1 bound to Fam20A in inverted orientation; ATP-2 bound to Fam20A at a second site, possibly a crystallization artifact
human Fam20B (hsFam20B) [2] = molecular target: T3, human Fam20B (hsFam20B); assay: […] incorporation from [γ-32P]ATP, Sep-Pak C18, scintillation counting; format: biochemical; conditions: 100 uM Gal-Xyl-benzyl, 100 uM ATP, 10 mM MnCl2, pH 7.5, 30 °C; mutant activity completely abolished
aqFam20 = molecular target: T6, aqFam20 (Amphimedon queenslandica, UniProt A0A1X7UVU4); assay: as above; format: biochemical; conditions: 100 uM Gal-Xyl-benzyl, 100 uM ATP, 10 mM MnCl2, pH 7.5, 30 °C
T6 construct: gene 100636703; residues 31-418, His6-MBP fusion secreted from High Five insect cells, cloned from cDNA library; monomer

human Fam20B (hsFam20B) [3] = molecular target: T4, human Fam20B (hsFam20B); assay: as above; format: biochemical; conditions: 100 uM Gal-Xyl-benzyl, 100 uM ATP, 10 mM MnCl2, pH 7.5, 30 °C
hmFam20 = molecular target: T7, hmFam20 (Hydra vulgaris, UniProt A0ABM4BCH6); assay: X-ray crystal structure, […] Å; conditions: co-crystallised with 2 mM Gal-Xyl-benzyl, 5 mM AMP-PNP, 10 mM MgCl2, pH 6.9; pocket next to the ATP-binding site; also phosphorylated by this enzyme (Figure 5b)
T7 construct: gene LOC100203383; residues 55-415, codon-optimized synthetic gene, High Five cells; for crystals His6-MBP removed with TEV and N-glycans trimmed with endoglycosidase F3; monomer

[4] = molecular target: the molecule itself; assay: not stated; ceFam20 (WT or F260A/P263G) in solution (Supplementary Fig. 3C)
[5] = molecular target: T5, human Fam20C (residues 63-584), untagged; assay: crystal structure; human Fam20A-Fam20C complex, formed with 0.25 mM ATP and purified by size exclusion; crystals at 20 °C in 2% 1,4-dioxane, 0.1 M Bicine pH 9.0, 9% PEG 20,000; conditions: both partners purified
[6] = molecular target: B4; assay: SEC; Fam20A mutants with human Fam20C; tetramer formation followed (Supplementary Fig. 5D); conditions: both partners purified
[7] = molecular target: the molecule itself; assay: AUC; purified Fam20C alone; oligomerises in a concentration-dependent manner; ~1 mg per ml

T6 sequence (A0A1X7UVU4 entry or part of it): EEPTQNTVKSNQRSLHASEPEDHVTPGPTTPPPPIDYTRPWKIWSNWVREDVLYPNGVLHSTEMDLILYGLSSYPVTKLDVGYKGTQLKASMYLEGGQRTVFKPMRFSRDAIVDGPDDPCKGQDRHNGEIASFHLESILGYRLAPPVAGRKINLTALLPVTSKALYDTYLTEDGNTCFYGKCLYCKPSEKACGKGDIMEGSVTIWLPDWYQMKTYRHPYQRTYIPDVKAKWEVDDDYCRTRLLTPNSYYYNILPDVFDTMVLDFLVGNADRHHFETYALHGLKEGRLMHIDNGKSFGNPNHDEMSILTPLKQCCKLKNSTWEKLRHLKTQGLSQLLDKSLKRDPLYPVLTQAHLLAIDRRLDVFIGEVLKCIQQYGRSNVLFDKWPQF
T7 sequence (A0ABM4BCH6 entry or part of it): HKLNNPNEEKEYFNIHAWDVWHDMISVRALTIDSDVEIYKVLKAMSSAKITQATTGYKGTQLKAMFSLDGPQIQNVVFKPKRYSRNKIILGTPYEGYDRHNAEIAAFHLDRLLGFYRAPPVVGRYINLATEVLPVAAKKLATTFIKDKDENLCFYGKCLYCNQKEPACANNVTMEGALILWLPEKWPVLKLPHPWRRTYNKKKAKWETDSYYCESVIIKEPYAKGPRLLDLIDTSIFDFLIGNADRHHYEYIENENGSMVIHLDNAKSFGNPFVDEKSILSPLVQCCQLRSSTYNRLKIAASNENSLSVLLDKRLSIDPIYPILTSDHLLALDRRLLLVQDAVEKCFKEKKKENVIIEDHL

Question: For `Nc1ncnc2c1ncn2[C@@H]1O[C@H](COP(=O)(O)OP(=O)(O)OP(=O)(O)O)[C@@H](O)[C@H]1O` [ATP], which “X-ray crystal structure, 3.55 Å” value (Fam20A−drFam20C complex) is on record?
Answer: In both structures, an ATP molecule (ATP-1) is bound to Fam20A in an inverted orientation

Question: And the “X-ray crystal structure, 3.30 Å” value [1]?
Answer: In both structures, an ATP molecule (ATP-1) is bound to Fam20A in an inverted orientation

Question: Which “32P incorporation from [γ-32P]ATP, Sep-Pak C18, scintillation counting” value (“32P incorporation from [γ-32P]ATP” for short) (human Fam20B (hsFam20B) [2]) does the source give for `OC[C@H]1O[C@@H](O[C@@H]2CO[C@@H](OCc3ccccc3)[C@H](O)[C@H]2O)[C@H](O)[C@@H](O)[C@H]1O` [Gal-Xyl, Galβ1-4Xylβ1-O-benzyl] here?
Answer: in human Fam20B (K312R, Fig. 6c) completely abolishes kinase activity

Question: What about the “32P incorporation from [γ-32P]ATP” value (aqFam20) of the same molecule?
Answer: sponge (aqFam20) and hydra (hmFam20) phosphorylate the Gal-Xyl disaccharide

Question: What about the “32P incorporation from [γ-32P]ATP” value (human Fam20B (hsFam20B) [3]) of the same molecule?
Answer: phosphorylate the Gal-Xyl disaccharide with efficiencies similar to human Fam20B (hsFam20B)

Question: And the “X-ray crystal structure, 2.85 Å” value (hmFam20)?
Answer: we also determined the structure of hmFam20 in complex with Gal-Xyl

Question: Which “stoichiometry N” value [4] does the source give for B1 here?
Answer: 2

Question: Does B2 bind [5]?
Answer: binds

Question: Does B3 bind [6]?
Answer: binds

Question: With B4 as the molecule, how does the “stoichiometry N” value [7] read?
Answer: 2
